Laboratory results as given in patent US9617310B2 (priority 2013, dated 2017).

Columns and labels:
Format in all cases: cell-based
[1] = tested on: genotype 1a stable HCV replicon (H77) in Huh-7-derived cells; assay: Stable subgenomic HCV replicon, genotype 1a, Renilla luciferase; details: Hepatitis C virus, stable replicon genotype 1a, 72 h, read-out: EC50 1A RLUC
Procedure, shortened: (§1)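 Replicons carry hRLuc-neo, EMCV IRES and NS3-NS5B with adaptive mutations: 1a H77 P1496L/S2204I, 1b Con1 E1202G/T1280I/K1846T, 4a ED43 Q1691R/S2204I. EC50 came from non-linear regression versus DMSO and a triple-inhibitor full-inhibition control.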

[2] = tested on: genotype 2a stable HCV replicon (JFH-1) in Huh-7-derived cells; assay: Stable subgenomic HCV replicon, genotype 2a, Renilla luciferase; details: Hepatitis C virus, stable replicon genotype 2a, 72 h, read-out: EC50 2A RLUC
[3] = tested on: genotype 4a stable HCV replicon (ED43) in Huh-7-derived cells; assay: Stable subgenomic HCV replicon, genotype 4a, Renilla luciferase; details: Hepatitis C virus, 72 h, read-out: EC50 4A RLUC
Procedure, shortened: as §1

[4] = tested on: genotype 1a (H77) wild-type transient HCV replicon in Huh-7-derived cells; assay: Transient-transfected HCV replicon, genotype 1a wild type; details: Hepatitis C virus; transient-transfected replicon genotype 1a wild type, 72 h; read-out: EC50 1A WT
[5] = tested on: NS3/4a protease inhibitor resistant variant R155K in genotype 1a transient HCV replicon; assay: Transient-transfected HCV replicon, genotype 1a R155K; details: Hepatitis C virus, 72 h, read-out: EC50 1A R155K
[6] = tested on: genotype 1b wild-type transient HCV replicon in Huh-7-derived cells; assay: Transient-transfected HCV replicon, genotype 1b wild type; details: Hepatitis C virus; transient-transfected replicon genotype 1b wild type, 72 h; read-out: EC50 1B WT
[7] = tested on: NS3/4a protease inhibitor resistant variant D168A in genotype 1b transient HCV replicon; assay: Transient-transfected HCV replicon, genotype 1b D168A; details: Hepatitis C virus, 72 h, read-out: EC50 1B D168A

SMILES	EC50 [1] [nM]	EC50 [2] [nM]	EC50 [3] [nM]	EC50 [4] [nM]	EC50 [5] [nM]	EC50 [6] [nM]	EC50 [7] [nM]
CC(C)(C)[C@@H]1NC(=O)O[C@@H]2C[C@@H]3C[C@@H]3[C@H]2CCCCCc2nc3ccc(Cl)cc3nc2O[C@@H]2C[C@@H](C(=O)N[C@]3(C(=O)NS(=O)(=O)C4CC4)C[C@H]3C(F)F)N(C2)C1=O [Example 19, (1aS,2aR,6S,9S,11R,23aR,23bS)-6-tert-butyl-15-chloro-N-[(1R,2R)-1-[(cyclopropylsulfonyl)carbamoyl]-2-(difluoromethyl)cyclopropyl]-4,7-dioxo-1a,2,2a,4,5,6,7,10,11,19,20,21,22,23,23a, 23b-hexadecahydro-1H,9H-8,11-methanocyclopropa[4′,5′]cyclopenta[1′,2′:18,19][1,10,3,6]dioxadiazacyclononadecino[11,12-b]quinoxaline-9-carboxamide]	1.4	3.1	1.8	1.3	1.9	1.1	16
COc1ccc2nc3c(nc2c1)O[C@@H]1C[C@@H](C(=O)N[C@]2(C(=O)NS(=O)(=O)C4(C)CC4)C[C@H]2CC(F)F)N(C1)C(=O)[C@H](C(C)(C)C)NC(=O)O[C@@H]1C[C@@H]2C[C@@H]2[C@H]1CCCCC3(F)F [Example 20, (1aS,2aR,6S,9S,11R,23aR,23bS)-6-tert-butyl-N-[(1R,2S)-2-(2,2-difluoroethyl)-1-{[(1-methylcyclopropyl)sulfonyl]carbamoyl}cyclopropyl]-19,19-difluoro-15-methoxy-4,7-dioxo-1a,2,2a,4,5,6,7,10,11,19,20,21,22,23,23a,23b-hexadecahydro-1H,9H-8,11-methanocyclopropa[4′,5′]cyclopenta[1′,2′:18,19][1,10,3,6]dioxadiazacyclononadecino[11,12-b]quinoxaline-9-carboxamide]	6	5	5	5.2	5	4.1	6.3
COc1ccc2cc3c(nc2c1)O[C@@H]1C[C@@H](C(=O)N[C@]2(C(=O)NS(=O)(=O)C4CC4)C[C@H]2C(F)F)N(C1)C(=O)[C@H](C(C)(C)C)NC(=O)O[C@@H]1C[C@@H]2C[C@@H]2[C@H]1CCCCC3 [Example 21, (1aS,2aR,6S,9S,11R,23aR,23bS)-6-tert-butyl-N-[(1R,2R)-1-[(cyclopropylsulfonyl)carbamoyl]-2-(difluoromethyl)cyclopropyl]-15-methoxy-4,7-dioxo-1a,2,2a,4,5,6,7,10,11,19,20,21,22,23,23a,23b-hexadecahydro-1H,9H-8,11-methanocyclopropa[4′,5′]cyclopenta[1′,2′:18,19][1,10,3,6]dioxadiazacyclononadecino[11,12-b]quinoline-9-carboxamide]	1.6	3.5	1.4	1.5	1.4	0.61	22
